The record followed here is publication PMC10825133, “Repurposing proteasome inhibitors for improved treatment of triple-negative breast cancer” (Cell Death Discovery, 2024).

Read-outs that look alike come from different tables or passages of the source. Residues, ends and D or L forms follow the SMILES beside them. *: point of attachment. Cbz = O=C(OCc1ccccc1)*

In one assay the test system is MDA-MB-453 cells. In words: Resazurin-based cell viability assay, monotherapy drug screen. Details: species or system human; AUC: scale not given here. Conditions: for IC50: Homo sapiens; for AUC: area under the dose response curve, 24 h. The method in brief:
(§1)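 Cells were seeded at the highest density (tested 1000-16000 cells/well) giving linear growth between days 1 and 3, keeping them in exponential phase over the ~52 h experiment. Viability was read after 4 h at 37 °C with 0.2 mg/ml resazurin added at 10% of medium volume; ex 560/em 615 nm.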
(Alamar Blue is a resazurin reagent that responds to reducing activity.)

Another assay concerns MDA-MB-436 cells. Described as above. Details: species or system human; AUC: scale not given here. The note with it: for IC50: Homo sapiens; for AUC: area under the dose response curve, 24 h; for GRmax: drug efficacy at highest tested dose (<0 cytotoxic, 0 cytostatic, >0 partial growth inhibition). In a few lines: as §1
Assay [1] relates to control cell lines (MCF-10A and MCF-7). In words: Monotherapy drug screen, mean across the controls. The format is cell-based, human. The note with it: for IC50: Homo sapiens, 24 h drug treatment, read-out: GR50 (mean ± SD). As for the experimental part:
(§2) Eighteen pharmaceutical compounds were purchased from Selleckchem (Supplementary Table 2). Stock solutions were prepared using dimethyl sulfoxide (DMSO; Merck), physiological saline (sodium chloride 0.9%) or Milli-Q water, and stored at −80 °C. […] Matched concentration solvent vehicle controls were used for each drug concentration. The drug screens were performed in triplicate and repeated three (monotherapy) or two (combination therapy) times (Fig. 7).
(§3) The optimal seeding density per 96-well was determined for each cell line as previously described. The cells were seeded at a density of 4.0 × 10^3 to 7.5 × 10^3 (cell type dependent) in 96-well clear, flat-bottom microplates (Corning Life Sciences, Sigma-Aldrich) in 100 µl complete culture medium (Supplementary Table 1) and cultured for 24 h. Cell viability was determined using the resazurin assay in untreated cells at the time of plating (t = 0) and treated cells after 24 h drug treatment (Fig. 7). Percentage cell viability was calculated as 100% × (absorbance of treated cells – absorbance of background controls) / (absorbance of matched solvent vehicle controls – absorbance of background controls). The area under the curve (AUC), half-maximal inhibitory concentration (IC50), drug potency (GR50), and drug efficacy (GRmax) were determined for each compound using the GRmetrics (version 1.20.0) package in R. The monotherapy data were evaluated with the IDACombo (version 1.0.2) package in R to predict potential drug combinations (Table 1). SynergyFinder (version 3.2.10) package in R was used to identify synergistic drug combinations.
(§4) Eighteen pharmaceutical compounds were purchased from Selleckchem. […] The solubility of the compound was enhanced by pre-heating the solvent (lukewarm), if necessary. […] The stock solutions were stored at -80°C. […] Matched concentration solvent vehicle controls were used for each drug concentration. The drug screens were performed in triplicate and repeated three times for the monotherapies and twice for the combination treatments. The drug(s) and corresponding controls were plated in 96-well PCR plates (VWR) and stored at -20°C (Fig. 6). The drug plates were thawed, centrifuged (3000 rpm for 30s), and acclimatized to RT before the drugs were added to the cells. New drug plates were prepared for each drug screen.
(§5) The cells were seeded at a density of 4.0x10^3 to 7.5x10^3 (cell type-dependent) in 96-well clear, flat-bottom microplates (Corning Life Sciences, Sigma-Aldrich) in 100 µl culture medium supplemented with 10% FBS and cultured for 24h. Cell viability was determined using the resazurin assay after 24h drug treatment (Fig. 6). Percentage cell viability was calculated as 100% × (absorbance of treated cells – absorbance of background controls) / (absorbance of matched solvent vehicle controls – absorbance of background controls). Normalized growth rate inhibition (GR) was assessed using the absorbance of untreated cells after the time of plating (t = 0). […] For combination treatment, the monotherapy data were evaluated with the IDACombo (version 1.0.2)[20] package in R to predict potential drug combinations (Table 1). SynergyFinder (version 3.2.10)[21] package in R was used to identify synergistic drug combinations.

The test system of assay [2] is eight TNBC cell lines and two controls (MCF-10A and MCF-7). In words: Monotherapy drug screen, all investigated cell lines. It counts as cell-based, human. Conditions: for drug potency classification, below the threshold: GR50 and AUC both below the threshold; for drug potency classification: metrics GR50 < 1.0 µM and AUC < 0.80. As for the experimental part:
as §2, §3, §4, §5

In a further assay the test system is CAL-148 cells. In words: Combination therapy, resazurin viability, SynergyFinder. The format is cell-based, human. Conditions: Homo sapiens. As for the experimental part:
as §2, §3, §4, §5

Assay [3] addresses T1, β5 catalytic site of the 20 S proteasome (Homo sapiens, UniProt P28074).
T1 construct: endogenous in cells; host or cells: MCF-7
The experiment in a line: Proteasome activity of the β5 catalytic site in MCF-7 cells (Suc-Leu-Leu-Val-Tyr-AMC substrate). The format is cell-based. Conditions: for inhibition at 1 µM: 1000 nM. On the procedure: Proteasome activity of the β5 catalytic site was determined for the PIs using a Suc-Leu-Leu-Val-Tyr-AMC fluorescent proteasome substrate (Enzo Life Sciences, Cat. BML-P802) at a final concentration of 20 µM. MCF-7 cells were seeded at 7.5 × 10^3 cells/well in black 96-well flat-bottom microplates (Nuclon™ Delta Surface, ThermoFisher Scientific) with 100 µl culture medium supplemented with 10% FBS. After 24 h, the cells were treated for 6 h with the 11 PIs at 1, 10, 100, and 1000 nM and matched untreated controls.

The mark [4] stands for this setting: MDA-MB-453, growth rate inhibition concentration at GR(c) = 0.5, 24 h, read-out: GR50 (the source's name).
Setting [5] is: MDA-MB-436, growth rate inhibition concentration at GR(c) = 0.5, 24 h, read-out: GR50 (the source's name).
The mark [6] stands for this setting: MCF7, MCF-7 cells treated 6 h, 10000 nM, read-out: inhibition of β5 activity.

Usually inhibition stands for the change of the read-out against control, counted positive when it falls. On to `CC(C)C[C@H](NC(=O)[C@H](Cc1ccccc1)NC(=O)c1cnccn1)B(O)O` [Bortezomib], for which the IC50 is 0.063 µM in the assay with MDA-MB-453 cells (setting [4]), 0.021 µM with MDA-MB-436 cells (setting [5]) and 21 ± 9.7 nM in assay [1]. For the same compound, the AUC with MDA-MB-453 cells (MDA-MB-453) and in the assay with MDA-MB-436 cells (MDA-MB-436) was 0.75 in each case. Moreover, the GRmax in the assay with MDA-MB-436 cells (MDA-MB-436) is reported as −0.76. Also, the “area under the dose response curve (AUC), mean ± SD” value in assay [1] (24 h) came to 0.69 ± 0.10. For the same compound, the “drug potency classification, below the threshold” value in assay [2] is reported as “highly potent drugs”. Also, in assay [2], the drug potency classification result is “potent drugs”. In addition, in the assay on CAL-148 cells (bortezomib 10 nM alone), the inhibition at 0.01 µM turned out to be 12.5%. The inhibition at 0.078 µM in the assay on CAL-148 cells (bortezomib 78 nM alone) was 62.8%. Further, the inhibition at 0.625 µM in the assay with CAL-148 cells (bortezomib 625 nM alone) was 55.1%. In addition, the inhibition at 5 µM in the assay with CAL-148 cells (bortezomib 5000 nM alone) was found to be 55.6%. The inhibition at 1 µM in assay [3] (MCF7, MCF-7 cells treated 6 h) came out at 95%. Besides, in assay [3] (setting [6]), the inhibition at 10 µM is 100%.
On to `CC(C)C[C@H](NC(=O)[C@@H](NC(=O)c1cccc(-c2ccccc2)n1)[C@@H](C)O)B(O)O` [Delanzomib], for which the IC50 in the assay with MDA-MB-453 cells (setting [4]) was 0.027 µM; in the assay on MDA-MB-436 cells (setting [5]), 0.029 µM; in assay [1] it was 24 ± 13 nM. The AUC was found to be 0.76 in the assay with MDA-MB-453 cells (MDA-MB-453) and 0.79 in the assay on MDA-MB-436 cells (MDA-MB-436). The compound also showed a GRmax with MDA-MB-436 cells (MDA-MB-436) of −0.84. Besides, the “drug potency classification, below the threshold” value in assay [2] is recorded as “highly potent drugs”. For the same compound, the drug potency classification entry in assay [2] is recorded as “potent drugs”. In assay [3] (MCF7, MCF-7 cells treated 6 h), this compound showed an inhibition at 1 µM of 55%. In assay [3] (setting [6]), the inhibition at 10 µM is 100%.
`CC(C)C[C@@H](C=O)NC(=O)[C@H](CC(C)C)NC(=O)[C@H](CC(C)C)NC(=O)OCc1ccccc1` [MG 132, MG-132] (Cbz-Leu-Leu-Leu-aldehyde): the IC50 in the assay on MDA-MB-453 cells (MDA-MB-453, 24 h, read-out: GR50 (µM)) was 1.7 µM; with MDA-MB-436 cells (MDA-MB-436, 24 h, read-out: GR50 (µM)), 0.29 µM. The figures for the AUC with MDA-MB-453 cells (MDA-MB-453) and with MDA-MB-436 cells (MDA-MB-436) were 0.87 and 0.86, respectively. Also, the GRmax in the assay on MDA-MB-436 cells (MDA-MB-436) was −0.88. Moreover, the inhibition at 10 µM in assay [3] (MCF7, read-out: inhibition of β5 activity) worked out at 25%.
Turning to `CC(C)C[C@H](NC(=O)CNC(=O)c1cc(Cl)ccc1Cl)B(O)O` [MLN 2238, MLN-2238], the IC50 in the assay on MDA-MB-453 cells (MDA-MB-453, 24 h drug treatment, read-out: IC50) came to 4.3 µM; with MDA-MB-453 cells (setting [4]), 0.64 µM; with MDA-MB-436 cells (setting [5]), 0.16 µM. The AUC with MDA-MB-453 cells (MDA-MB-453) is recorded as 0.81; with MDA-MB-436 cells (MDA-MB-436), 0.88. This compound returned a GRmax in the assay on MDA-MB-436 cells (MDA-MB-436) of −0.78. Moreover, the “drug potency classification, below the threshold” value in assay [2] was “highly potent drugs”. The drug potency classification result in assay [2] was “potent drugs”. Moreover, in assay [3] (setting [6]), the inhibition at 10 µM came to 33%.
Regarding `CC(C)C[C@H](NC(=O)CNC(=O)c1cc(Cl)ccc1Cl)B1OC(=O)C(CC(=O)O)(CC(=O)O)O1` [MLN 9708, MLN-9708], the IC50 in the assay on MDA-MB-453 cells (setting [4]) stood at 1.8 µM; with MDA-MB-436 cells (setting [5]), 0.11 µM. The AUC in the assay on MDA-MB-453 cells (MDA-MB-453) amounted to 0.88; with MDA-MB-436 cells (MDA-MB-436), 0.86. In the assay with MDA-MB-436 cells (MDA-MB-436), the GRmax is −0.82. In addition, the drug potency classification result in assay [2] is reported as “potent drugs”. In addition, in assay [3] (setting [6]), the inhibition at 10 µM amounted to 51%.
